Reference: ChEMBL document CHEMBL1201862, “PubChem BioAssay data set” (2004)
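Dose response: 5 concentrations. Exposure: 48 h. Format: 96-well plates. Endpoint: linear interpolation; highest concentration if not reached. GI50 is the concentration that inhibits growth by half.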 Calls of active or inactive are those of the source. No stated cut-off is given here; in the data, active = GI50 up to about 1.1 µM and inactive = higher.

Legend:
Assay in all cases: NCI-60 cell line screen, 48 h
[1] = test system: A549
[2] = test system: ACHN
[3] = test system: COLO 205
[4] = test system: EKVX
[5] = test system: HCC 2998
[6] = test system: HL-60
[7] = test system: HOP-62
[8] = test system: Malme-3M
[9] = test system: OVCAR-5
[10] = test system: SNB-19
[11] = test system: SNB-75
[12] = test system: SW-620
[13] = test system: TK-10
[14] = test system: U-251
[15] = test system: HOP-92
[16] = test system: KM12

Measured: GI50

N#Cc1c2c(c(Cl)n3c1nc1ccccc13)CCCC2
inactive: [1] 4.25 µM | [2] 3.56 µM | [3] 5.12 µM | [4] 17.8 µM | [5] 16.4 µM | [6] 1.66 µM | [7] > 10 µM | [8] 13.2 µM | [9] 18.4 µM | [10] 4.69 µM | [11] 17.2 µM | [12] 1.96 µM | [13] 2.53 µM | [14] 3.65 µM

Nn1c(=O)n(Cc2ccccc2)n(-c2ccccc2)c1=O
inactive: [1] > 100 µM | [2] > 100 µM | [5] > 100 µM | [6] > 100 µM | [7] > 100 µM | [15] > 100 µM | [16] > 100 µM | [8] > 100 µM | [9] > 100 µM | [10] > 100 µM | [11] 74.1 µM | [12] > 100 µM | [13] > 100 µM | [14] > 100 µM

CC(=O)c1ccc(NC(=O)/C(CC(=O)c2sc(-c3cccnc3)nc2C)=N/NC(N)=O)cc1
inactive: [1] 22.5 µM | [2] 22.4 µM | [3] 18.2 µM | [4] 2.71 µM | [5] > 10 µM | [6] 29.5 µM | [7] > 10 µM | [16] > 100 µM | [8] > 100 µM | [9] 45.1 µM | [10] 53.6 µM | [12] > 100 µM | [13] > 10 µM | [14] 68.1 µM

CN(C)CCNC(=O)c1ccc(Cl)c2c(Nc3ccc(S(=O)(=O)N=C(N)N)cc3)c3ccccc3nc12
inactive: [1] 3.33 µM | [2] 4.22 µM | [3] 3.78 µM | [4] 11.4 µM | [5] 8.17 µM | [6] 1.7 µM | [7] 10.1 µM | [16] 4.21 µM | [9] > 10 µM | [10] 1.85 µM | [11] > 10 µM | [12] 1.73 µM | [13] 12.6 µM | [14] 3.29 µM

Brc1cc2c(cc1C1SCCS1)OCO2
inactive: [1] > 100 µM | [2] > 100 µM | [4] > 100 µM | [5] > 100 µM | [6] 96.4 µM | [7] > 100 µM | [16] > 100 µM | [8] > 100 µM | [9] > 100 µM | [10] > 100 µM | [11] > 100 µM | [12] > 100 µM | [13] > 100 µM | [14] > 100 µM

Cn1nc(-c2ccccc2)c(C(=O)/C=C/c2ccc(F)cc2)c(N2CCOCC2)c1=O
inactive: [1] 17.4 µM | [2] 22.5 µM | [3] 18.2 µM | [4] 25.7 µM | [6] 14.6 µM | [15] 15.2 µM | [10] 13.7 µM | [12] 21.3 µM | [13] 28.6 µM | [14] 16.7 µM

CN1C(=O)CCC2[C@@H]3CC=C4C[C@@H](O)CC[C@]4(C)C3CC[C@@]21C (stereo partly specified)
inactive: [1] 46.1 µM | [2] 42.4 µM | [4] 67.5 µM | [5] > 100 µM | [6] 11.5 µM | [7] 45.9 µM | [16] 59.8 µM | [8] 82.4 µM | [9] 97.7 µM | [11] > 100 µM | [12] > 100 µM | [13] > 100 µM | [14] > 100 µM

O=c1c2c([nH]c3cc4c(cc13)OCO4)-c1ccccc1C2
inactive: [1] 27.1 µM | [2] 19.4 µM | [3] 17 µM | [4] 29.6 µM | [5] 24.4 µM | [6] 27.7 µM | [7] 23.4 µM | [15] 18.3 µM | [16] 18.6 µM | [8] 23.2 µM | [10] 37.1 µM | [12] 35.2 µM | [13] 10.7 µM | [14] 17.2 µM

O=C(N[C@H]1CC2(C=C(I)C(=O)C(I)=C2)OC1=O)OCc1ccccc1
inactive: [1] 42.8 µM | [2] 18.5 µM | [3] 14.5 µM | [4] 14.3 µM | [5] 17.9 µM | [6] 3.93 µM | [7] 22.6 µM | [16] 16 µM | [8] 17.3 µM | [9] 18.9 µM | [10] 21.8 µM | [11] 19.6 µM | [13] 17.7 µM | [14] 17.3 µM

Nc1ccc(C(=O)NN2C(=O)C(Cl)C2c2ccc(O)cc2)cc1 (stereo unspecified)
inactive: [1] 56.9 µM | [2] 35.2 µM | [3] 18.8 µM | [4] 16.6 µM | [6] 15.6 µM | [7] 21.7 µM | [15] 24.5 µM | [16] 21.8 µM | [8] 18.5 µM | [9] 21.7 µM | [10] 16 µM | [11] 26.5 µM | [12] 23.3 µM | [13] 44.3 µM | [14] 16.1 µM
